Measurements from the supplement of paper PMC10307832.

How the values were obtained:
Test in all cases: relative viability (nuclei count vs DMSO), 5 days (fraction); higher = more cells survive
Ibrutinib + Luminespib = compound: C=CC(=O)N1CCC[C@@H](n2nc(-c3ccc(Oc4ccccc4)cc3)c3c(N)ncnc32)C1 [Ibrutinib] + CCNC(=O)c1noc(-c2cc(C(C)C)c(O)cc2O)c1-c1ccc(CN2CCOCC2)cc1 [Luminespib] (partner 0.01 µM)
In short: (§1)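 For relative viability, nuclei counts in treated wells were divided by those in vehicle wells. Lung cancer cell lines had been pin-tool dosed in 1536-well plates the day after seeding and cultured for 5 days, then fixed and stained in one step (final 0.05% Triton X-100, 1% formaldehyde, 1 ug/ml Hoechst) and imaged at 4×. Doses were one drug alone or a fixed anchor-drug dose plus five library-drug doses (not always all listed) in √10 steps, and values are duplicate-plate medians.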

Ibrutinib + AZD7762 = compound: C=CC(=O)N1CCC[C@@H](n2nc(-c3ccc(Oc4ccccc4)cc3)c3c(N)ncnc32)C1 [Ibrutinib] + NC(=O)Nc1cc(-c2cccc(F)c2)sc1C(=O)N[C@H]1CCCNC1 [AZD7762] (partner 0.2 µM)
In short: as §1

Ibrutinib + Decitabine = compound: C=CC(=O)N1CCC[C@@H](n2nc(-c3ccc(Oc4ccccc4)cc3)c3c(N)ncnc32)C1 [Ibrutinib] + Nc1ncn([C@H]2C[C@H](O)[C@@H](CO)O2)c(=O)n1 [Decitabine] (partner 2 µM)
In short: as §1

PAC-1 + Bortezomib = compound: C=CCc1cccc(/C=N/NC(=O)CN2CCN(Cc3ccccc3)CC2)c1O [PAC-1] + CC(C)C[C@H](NC(=O)[C@H](Cc1ccccc1)NC(=O)c1cnccn1)B(O)O [Bortezomib] (partner 0.002 µM)
In short: as §1

Row | Cell Line | relative viability (Ibrutinib + Luminespib; first compound 0.005 µM) | relative viability (Ibrutinib + Luminespib; first compound 0.01581 µM) | relative viability (Ibrutinib + Luminespib; first compound 0.05 µM) | relative viability (Ibrutinib + Luminespib; first compound 0.1581 µM) | relative viability (Ibrutinib + Luminespib; first compound 0.5 µM) | relative viability (Ibrutinib + AZD7762; first compound 0.005 µM) | relative viability (Ibrutinib + AZD7762; first compound 0.01581 µM) | relative viability (Ibrutinib + AZD7762; first compound 0.05 µM) | relative viability (Ibrutinib + AZD7762; first compound 0.1581 µM) | relative viability (Ibrutinib + AZD7762; first compound 0.5 µM) | relative viability (Ibrutinib + Decitabine; first compound 0.005 µM) | relative viability (Ibrutinib + Decitabine; first compound 0.01581 µM) | relative viability (Ibrutinib + Decitabine; first compound 0.05 µM) | relative viability (Ibrutinib + Decitabine; first compound 0.1581 µM) | relative viability (Ibrutinib + Decitabine; first compound 0.5 µM) | relative viability (PAC-1 + Bortezomib; first compound 0.02 µM) | relative viability (PAC-1 + Bortezomib; first compound 0.06325 µM) | relative viability (PAC-1 + Bortezomib; first compound 0.2 µM) | relative viability (PAC-1 + Bortezomib; first compound 2 µM)
1 | NCI-H1651 | 0.847 | 1.05 | 0.93 | 0.876 | 0.921 | 0.306 | 0.459 | 0.452 | 0.464 | 0.48 | 0.426 | 0.693 | 0.56 | 0.465 | 0.53 | 0.905 | 0.929 | 0.88 | 0.968
2 | NCI-H1666 | 0.951 | 0.975 | 0.956 | 1.08 | 0.784 | 0.803 | 0.777 | 0.843 | 0.892 | 0.783 | 0.569 | 0.782 | 0.666 | 0.663 | 0.632 | 0.849 | 0.809 | 0.828 | 0.912
3 | NCI-H1734 | 0.208 | 0.189 | 0.235 | 0.188 | 0.175 | 0.481 | 0.518 | 0.449 | 0.557 | 0.526 | 0.548 | 0.511 | 0.541 | 0.455 | 0.47 | 0.904 | 0.995 | 0.877 | 0.955
4 | NCI-H1755 | 0.318 | 0.617 | 0.55 | 0.313 | 0.531 | 0.45 | 0.455 | 0.454 | 0.409 | 0.453 | 0.739 | 0.716 | 0.704 | 0.713 | 0.7 | 0.99 | 0.961 | 0.938 | 0.907
5 | NCI-H1792 | – | 0.486 | 0.485 | 0.364 | 0.367 | – | 0.693 | 0.6 | 0.636 | 0.515 | – | 0.584 | 0.558 | 0.591 | 0.441 | 0.982 | 1.01 | 0.947 | 0.896
6 | NCI-H1915 | 0.824 | 0.85 | 0.819 | 0.857 | 0.69 | 0.76 | 0.638 | 0.625 | 0.741 | 0.667 | 0.269 | 0.272 | 0.275 | 0.272 | 0.255 | 0.995 | 0.964 | 0.907 | 1.02
7 | NCI-H1975 | 0.162 | 0.183 | 0.212 | 0.254 | 0.138 | 0.647 | 0.556 | 0.517 | 0.522 | 0.342 | 0.414 | 0.354 | 0.379 | 0.373 | 0.177 | 0.35 | 0.396 | 0.378 | 0.386
8 | NCI-H1993 | 0.607 | 0.78 | 0.824 | 0.689 | 0.605 | 0.39 | 0.732 | 0.739 | 0.751 | 0.557 | 0.571 | 0.637 | 0.579 | 0.554 | 0.441 | 0.975 | 1.08 | 1.15 | 1.09
9 | NCI-H2085 | 0.349 | 0.465 | 0.504 | 0.489 | 0.447 | 0.906 | 0.926 | 0.919 | 0.926 | 0.729 | 0.57 | 0.56 | 0.588 | – | 0.568 | 1.09 | 1.1 | 1.14 | 1.12
10 | NCI-H2087 | 0.161 | 0.136 | 0.153 | – | 0.165 | 1.77 | 1.19 | 1.04 | – | 1.21 | 0.238 | 0.279 | 0.261 | – | 0.291 | 0.739 | 0.838 | 0.702 | 0.95
11 | NCI-H2126 | 0.651 | 0.756 | 0.855 | 0.962 | 0.75 | 0.776 | 0.966 | 0.962 | 0.986 | 0.958 | 0.537 | 0.565 | 0.613 | 0.598 | 0.502 | 1.08 | 1.08 | 1.21 | 1.18
12 | NCI-H2347 | – | 0.508 | 0.358 | 0.323 | 0.529 | 0.739 | 0.733 | 0.69 | 0.665 | 0.696 | 0.65 | 0.609 | 0.658 | 0.575 | 0.535 | 1.07 | 0.912 | 1.08 | 0.875
13 | NCI-H2405 | 0.846 | 0.669 | 0.66 | 0.713 | 0.69 | 0.778 | 0.65 | – | – | 0.829 | 0.622 | 0.715 | – | – | 0.682 | 0.981 | 1.02 | 0.959 | 0.977
14 | NCI-H3122 | 0.0621 | 0.0853 | 0.101 | 0.104 | 0.0947 | 1.16 | 0.946 | 1.03 | 0.885 | 0.992 | 0.52 | 0.381 | 0.471 | 0.424 | 0.431 | 1.03 | 1.05 | 1 | 0.977
15 | PC-3 [JPC-3] | 0.65 | 0.64 | 0.74 | 0.806 | 0.505 | 0.631 | 0.588 | 0.478 | – | 0.445 | 0.707 | 0.762 | 0.707 | 0.837 | 0.542 | 0.83 | 0.789 | 0.774 | 0.877
16 | PC-14 | 0.167 | 0.266 | 0.135 | 0.127 | 0.179 | 0.379 | 0.349 | 0.314 | 0.224 | 0.23 | 0.241 | 0.202 | 0.217 | 0.168 | 0.22 | 0.937 | 0.953 | 0.754 | 0.927
17 | RERF-LC-KJ | 1.24 | 1.12 | 1.26 | 1.14 | 1.16 | 0.464 | 0.943 | 0.845 | 0.896 | 0.714 | 0.599 | 0.654 | 0.561 | 0.693 | 0.728 | 1.15 | 1.16 | 1.08 | 1.17
